# Assay results: patent US11795199B2, “Peptide targeting Mycobacterium tuberculosis toxin-antitoxin system and use thereof” (Seoul National University R&DB Foundation, priority 2017, dated 2023)
# Experiments:
# [1] = target: T1, VapBC26 protein complex containing Y51E (Mycobacterium tuberculosis, UniProt O53778, Y51E)
# [2] = target: T1, VapBC26 protein complex containing Y51E; remark: listed apart in the source
sequence,measurement,setting,value
DAELAVLRELAG [mimetic peptide for VapC26 α4],"calculated area corresponding to VapC26, larger than with the native protein complex",[1],15.42%
same,fluorescence increase in Y51E,[2],15.07%
